Measured values reported in PubChem BioAssay AID330 (DTP/NCI, 2004).
“And” between values parts separate entries of the source, which are not always exact repeats. Equal values may be shown once. Toxic doses and inconclusive results are not listed. Peptide text beside a SMILES is read from it. * marks the point of attachment. Boc = CC(C)(C)OC(=O)*; NHNH2 = NN*

Test system: P388 leukemia ip, CD2F1 mice, survival T/C
Experiment: NCI In Vivo Anticancer Drug Screen. Data for tumor model P388 Leukemia (intraperitoneal) in CD2F1 (CDF1) mice
Conditions: endpoint: median survival time, higher = longer survival
Method in brief: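 Mice carrying the transplanted tumor received test compound or vehicle. Survival was recorded in each group, and the value is the treated-group measurement divided by that of the vehicle-treated control group.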

[1] = dose: 60.0 mg/kg/injection, schedule: Q01DX005 (ip), vehicle: saline with Tween-80
[2] = dose: 50.0 mg/kg/injection, schedule: Q01DX005 (ip), vehicle: Klucel (hydroxypropylcellulose) (HPC)
[3] = dose: 100.0 mg/kg/injection, schedule: Q01DX005 (ip), vehicle: Klucel (hydroxypropylcellulose) (HPC)
[4] = dose: 200.0 mg/kg/injection, schedule: Q01DX005 (ip), vehicle: Klucel (hydroxypropylcellulose) (HPC)
[5] = dose: 12.5 mg/kg/injection, schedule: Q01DX009 (ip), vehicle: saline with Tween-80
[6] = dose: 25.0 mg/kg/injection, schedule: Q01DX009 (ip), vehicle: saline with Tween-80
[7] = dose: 50.0 mg/kg/injection, schedule: Q01DX009 (ip), vehicle: saline with Tween-80
[8] = dose: 100.0 mg/kg/injection, schedule: Q01DX009 (ip), vehicle: saline with Tween-80
[9] = dose: 12.5 mg/kg/injection, schedule: Q01DX009 (ip), vehicle: saline
[10] = dose: 25.0 mg/kg/injection, schedule: Q01DX009 (ip), vehicle: saline
[11] = dose: 200.0 mg/kg/injection, schedule: Q01DX009 (ip), vehicle: saline with Tween-80
[12] = dose: 50.0 mg/kg/injection, schedule: Q01DX005 (ip), vehicle: saline with Tween-80
[13] = dose: 100.0 mg/kg/injection, schedule: Q01DX005 (ip), vehicle: saline with Tween-80
[14] = dose: 200.0 mg/kg/injection, schedule: Q01DX005 (ip), vehicle: saline with Tween-80
[15] = dose: 120.0 mg/kg/injection, schedule: Q01DX005 (ip), vehicle: saline with Tween-80

`O=C1C(Cl)=C(NCC2CCCN3CCCCC23)C(=O)c2ccccc21` (centres undefined) was tested, and the T/C (dose: 50.0 mg/kg/injection, schedule: Q01DX005 (ip), vehicle: saline) was 113 % of control and the T/C (dose: 100.0 mg/kg/injection, schedule: Q01DX005 (ip), vehicle: saline) was 117 % of control.
`Cc1cccc(Cl)c1NCCN1CCCC1` was tested, and the T/C (dose: 15.0 mg/kg/injection, schedule: Q01DX005 (ip), vehicle: saline with Tween-80) was 103 % of control, the T/C (dose: 30.0 mg/kg/injection, schedule: Q01DX005 (ip), vehicle: saline with Tween-80) was 101 % of control and the T/C [1] was 106 % of control and 108 % of control.
In the case of `O=C1c2ccccc2-n2c1nc1ccc([N+](=O)[O-])cc1c2=O`, the T/C [2] was 103 % of control, the T/C [3] was 97 % of control and the T/C [4] was 94 % of control. For the same compound, the T/C (dose: 400.0 mg/kg/injection, schedule: Q04DX002 (ip), vehicle: Klucel (hydroxypropylcellulose) (HPC)) was 96 % of control.
With `c1ccc2c(c1)nnn1c3cnccc3nc21` the T/C [5] was 111 % of control.
With `CCN(CC)CCNc1ccc(C)c2sc3ccc(N)cc3c(=O)c12` the T/C [5] was 120 % of control, the T/C [6] was 103 % of control and the T/C [7] was 124 % of control. The T/C [8] was 118 % of control.
`COc1ccc(/C=N\N=C(/[O-])c2ccc(Cl)cc2)cc1.COc1ccc(/C=N\N=C(/[O-])c2ccc(Cl)cc2)cc1.[Co+2].[OH3+].[OH3+]` was tested, and the T/C (dose: 100.0 mg/kg/injection, schedule: Q04DX002 (ip), vehicle: saline with Tween-80) was 93 % of control, the T/C (dose: 200.0 mg/kg/injection, schedule: Q04DX002 (ip), vehicle: saline with Tween-80) was 102 % of control and the T/C (dose: 400.0 mg/kg/injection, schedule: Q04DX002 (ip), vehicle: saline with Tween-80) was 103 % of control.
For `FC(F)(F)c1ccccc1NC(=S)SCc1ccc2c(c1)OCO2`, the T/C [9] was 97 % of control, the T/C [10] was 90 % of control and the T/C (dose: 50.0 mg/kg/injection, schedule: Q01DX009 (ip), vehicle: saline) was 100 % of control.
`O=[N+]([O-])c1ccc2c(N=Nc3c(O)ccc4ccccc34)c(O)cc(S(=O)(=O)O)c2c1` was tested, and the T/C (dose: 100.0 mg/kg/injection, schedule: Q04DX003 (ip), vehicle: saline) was 100 % of control, the T/C (dose: 132.0 mg/kg/injection, schedule: Q01DX009 (ip), vehicle: saline with Tween-80) was 109 % of control and the T/C [11] was 109 % of control. For the same compound, the T/C (dose: 200.0 mg/kg/injection, schedule: Q04DX003 (ip), vehicle: saline) was 100 % of control, the T/C (dose: 300.0 mg/kg/injection, schedule: Q01DX009 (ip), vehicle: saline with Tween-80) was 113 % of control and the T/C (dose: 400.0 mg/kg/injection, schedule: Q04DX003 (ip), vehicle: saline) was 111 % of control.
`O=C(O)C(Cc1ccccc1N(CCO)CCO)N1C(=O)c2ccccc2C1=O` (centres undefined) was tested, and the T/C [6] was 99 % of control, the T/C [7] was 93 % of control and the T/C [8] was 93 % of control. The T/C [11] was 96 % of control.
In the case of `CCOC(=O)CCC(NC(=O)c1ccc(NCc2cnc3nc(N)nc(N)c3c2)cc1)C(=O)OCC` (centres undefined), the T/C (dose: 0.25 mg/kg/injection, schedule: Q01DX005 (ip), vehicle: saline with Tween-80) was 162 % of control, the T/C (dose: 0.5 mg/kg/injection, schedule: Q01DX005 (ip), vehicle: saline with Tween-80) was 158 % of control and 183 % of control and the T/C (dose: 1.0 mg/kg/injection, schedule: Q01DX005 (ip), vehicle: saline with Tween-80) was 183 % of control and 218 % of control. The T/C (dose: 2.0 mg/kg/injection, schedule: Q01DX005 (ip), vehicle: saline with Tween-80) was 104 % of control, the T/C (dose: 125.0 micrograms/kg/injection, schedule: Q01DX005 (ip), vehicle: saline with Tween-80) was 114 % of control and the T/C (dose: 1000.0 micrograms/kg/injection, schedule: Q01DX005 (ip), vehicle: saline with Tween-80) was 151 % of control.
In the case of `COC(=O)CC1(O)C=CC(=O)c2ccccc21` (centres undefined), the T/C (dose: 12.5 mg/kg/injection, schedule: Q01DX005 (ip), vehicle: saline with Tween-80) was 94 % of control, the T/C (dose: 25.0 mg/kg/injection, schedule: Q01DX005 (ip), vehicle: saline with Tween-80) was 100 % of control and the T/C [12] was 109 % of control. The T/C [13] was 112 % of control.
`O=C1NC(O)c2cccc([N+](=O)[O-])c2O1` (centres undefined) was tested, and the T/C [12] was 100 % of control, the T/C [13] was 105 % of control and the T/C [14] was 110 % of control.
For `O=C(O)C(S)Cc1cnc[nH]1` (centres undefined), the T/C (dose: 100.0 mg/kg/injection, schedule: Q04DX002 (ip), vehicle: saline) was 99 % of control and the T/C (dose: 200.0 mg/kg/injection, schedule: Q04DX002 (ip), vehicle: saline) was 99 % of control.
In the case of `COC(=O)c1nc(=S)[nH]c(C(=O)OC)c1C(=O)c1cccc2ccccc12`, the T/C (dose: 60.0 mg/kg/injection, schedule: Q01DX005 (ip), vehicle: Klucel + Tween-80) was 102 % of control, the T/C (dose: 120.0 mg/kg/injection, schedule: Q01DX005 (ip), vehicle: Klucel + Tween-80) was 95 % of control and the T/C (dose: 240.0 mg/kg/injection, schedule: Q01DX005 (ip), vehicle: Klucel + Tween-80) was 92 % of control.
In the case of `O=C(COc1ccc(Cl)cc1Cl)Nc1ccc(S(=O)(=O)O)cc1`, the T/C (dose: 60.0 mg/kg/injection, schedule: Q01DX005 (ip), vehicle: Klucel (hydroxypropylcellulose) (HPC)) was 104 % of control, the T/C (dose: 120.0 mg/kg/injection, schedule: Q01DX005 (ip), vehicle: Klucel (hydroxypropylcellulose) (HPC)) was 104 % of control and the T/C (dose: 240.0 mg/kg/injection, schedule: Q01DX005 (ip), vehicle: Klucel (hydroxypropylcellulose) (HPC)) was 98 % of control.
For `C[As](C)SCCC(N)C(=O)NC(CCS[As](C)C)C(=O)O` (centres undefined), the T/C (dose: 12.5 mg/kg/injection, schedule: Q01DX009 (ip), vehicle: Klucel (hydroxypropylcellulose) (HPC)) was 110 % of control.
In the case of `O=C(NNc1ccccc1)N(Nc1ccccc1)C(=O)Nc1ccccc1`, the T/C [12] was 99 % of control, the T/C [13] was 91 % of control and the T/C [14] was 99 % of control.
In the case of `NCC12CC3CC(CC(C3)C1)C2`, the T/C [5] was 103 % of control, the T/C [6] was 102 % of control and the T/C [7] was 100 % of control and 102 % of control.
`Oc1ccc(CCl)c2cccnc12` was tested, and the T/C [9] was 98 % of control, the T/C [10] was 101 % of control and the T/C (dose: 100.0 mg/kg/injection, schedule: Q01DX009 (ip), vehicle: saline) was 150 % of control.
With `CC(C)(C)OC(=O)NC(Cc1c[nH]c2ccccc12)C(=O)NC(Cc1ccccc1)C(=O)NN` (stereo not drawn) (Boc-Trp-Phe-NHNH2; configuration not given here) the T/C (dose: 50.0 mg/kg/injection, schedule: Q01DX009 (ip), vehicle: Klucel (hydroxypropylcellulose) (HPC)) was 92 % of control, the T/C (dose: 100.0 mg/kg/injection, schedule: Q01DX009 (ip), vehicle: Klucel (hydroxypropylcellulose) (HPC)) was 88 % of control and the T/C (dose: 200.0 mg/kg/injection, schedule: Q01DX009 (ip), vehicle: Klucel (hydroxypropylcellulose) (HPC)) was 91 % of control.
With `O/N=C(/C=N/O)SCCSC(/C=N/O)=N/O` the T/C [2] was 110 % of control, the T/C [3] was 109 % of control and the T/C [4] was 112 % of control.
With `O=C(O)c1c(-c2ccccc2)cnc2ccccc12` the T/C [7] was 95 % of control, the T/C [8] was 89 % of control and the T/C [11] was 97 % of control.
For `CCC1CCCN(CCc2c(C3(CO)CCC(CO)c4c(CCN5CCCC(CC)C5)c5ccccc5n43)[nH]c3ccccc23)C1` (centres undefined), the T/C (dose: 0.7 mg/kg/injection, schedule: Q01DX009 (ip), vehicle: saline with Tween-80) was 106 % of control, the T/C (dose: 1.4 mg/kg/injection, schedule: Q01DX009 (ip), vehicle: saline with Tween-80) was 102 % of control and the T/C (dose: 2.8 mg/kg/injection, schedule: Q01DX009 (ip), vehicle: saline with Tween-80) was 102 % of control.
`COC1=CC(=O)C(C#CCOCc2ccccc2)=CC1=O` was tested, and the T/C (dose: 7.5 mg/kg/injection, schedule: Q01DX005 (ip), vehicle: Klucel (hydroxypropylcellulose) (HPC)) was 100 % of control, the T/C (dose: 15.0 mg/kg/injection, schedule: Q01DX005 (ip), vehicle: Klucel (hydroxypropylcellulose) (HPC)) was 102 % of control and the T/C (dose: 30.0 mg/kg/injection, schedule: Q01DX005 (ip), vehicle: Klucel (hydroxypropylcellulose) (HPC)) was 105 % of control.
`O=C1NC(=O)/C(=C\c2ccccc2)C2=C1CCCC2` was tested, and the T/C (dose: 12.5 mg/kg/injection, schedule: Q01DX005 (ip), vehicle: Klucel (hydroxypropylcellulose) (HPC)) was 103 % of control, the T/C (dose: 25.0 mg/kg/injection, schedule: Q01DX005 (ip), vehicle: Klucel (hydroxypropylcellulose) (HPC)) was 103 % of control and the T/C [2] was 108 % of control.
`COc1nc2[nH]c(C)cc(=O)c2c2ccccc12` was tested, and the T/C [1] was 98 % of control and the T/C [15] was 98 % of control.
For `O=C1CCC(Cc2ccc(Br)cc2)C(=O)N1` (centres undefined), the T/C [1] was 104 % of control, the T/C [15] was 98 % of control and the T/C (dose: 240.0 mg/kg/injection, schedule: Q01DX005 (ip), vehicle: saline with Tween-80) was 98 % of control.
